Like-named read-outs stand apart in the source and are kept apart here.
Target: T1, androgen receptor (AR) (Homo sapiens, UniProt P10275)
T1 sequence (P10275 1-920): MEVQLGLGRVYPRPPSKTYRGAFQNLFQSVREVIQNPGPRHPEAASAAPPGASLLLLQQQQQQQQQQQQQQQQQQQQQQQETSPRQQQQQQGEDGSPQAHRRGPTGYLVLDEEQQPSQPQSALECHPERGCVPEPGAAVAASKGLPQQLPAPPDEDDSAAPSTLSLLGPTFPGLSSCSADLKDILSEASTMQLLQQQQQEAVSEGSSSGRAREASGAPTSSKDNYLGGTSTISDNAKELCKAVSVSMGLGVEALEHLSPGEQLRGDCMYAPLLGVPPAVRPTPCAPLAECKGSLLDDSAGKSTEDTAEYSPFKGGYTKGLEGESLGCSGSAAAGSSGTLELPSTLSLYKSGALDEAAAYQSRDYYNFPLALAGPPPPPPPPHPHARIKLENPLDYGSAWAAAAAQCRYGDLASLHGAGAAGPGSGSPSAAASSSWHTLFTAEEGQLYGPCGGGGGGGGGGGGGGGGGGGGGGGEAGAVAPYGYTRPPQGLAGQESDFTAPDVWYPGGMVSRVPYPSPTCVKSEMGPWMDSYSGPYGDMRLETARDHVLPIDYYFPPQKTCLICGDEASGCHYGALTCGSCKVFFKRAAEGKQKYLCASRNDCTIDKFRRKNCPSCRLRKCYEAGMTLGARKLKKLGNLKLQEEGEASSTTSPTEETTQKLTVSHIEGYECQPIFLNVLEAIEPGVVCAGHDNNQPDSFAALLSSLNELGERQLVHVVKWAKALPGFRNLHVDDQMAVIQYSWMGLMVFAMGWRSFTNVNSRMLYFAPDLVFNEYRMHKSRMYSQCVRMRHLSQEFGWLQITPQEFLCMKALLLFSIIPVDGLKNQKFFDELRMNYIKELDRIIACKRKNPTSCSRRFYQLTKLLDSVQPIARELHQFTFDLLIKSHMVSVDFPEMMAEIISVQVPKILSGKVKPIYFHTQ
Experiment: Degradation of androgen receptor (AR) protein in VCaP cells by ELISA
Assay type: cell-based
Details: for DC50: read-out: DC50; for Dmax: VCaP

[1] = AR degradation, VCaP cells, 16 h, ELISA, Table 3-1
[2] = AR degradation, VCaP cells, 16 h, ELISA, Table 3-1, read-out: Dmax (%)
[3] = AR degradation, VCaP cells, 16 h, ELISA, Table 3-2
[4] = AR degradation, VCaP cells, 16 h, ELISA, Table 3-2, read-out: Dmax (%)

DC50 [1] | DC50 [3] | Dmax [4] | Compound | also measured
0.01 to 0.1 µM | – | – | CC1(C)[C@H](Oc2ccc(C#N)c(Cl)c2)C(C)(C)[C@H]1N1Cc2nc(C#C[C@H]3CC[C@H](N4CCN(c5cc6c(cc5F)C(=O)N(C5CCC(=O)NC5=O)C6=O)CC4)CC3)cnc2C1=O (stereo partly shown) [Compound 380] | Dmax [2]: 60 to 80%
0.01 to 0.1 µM | – | – | CC1(C)[C@H](Oc2ccc(C#N)c(Cl)c2)C(C)(C)[C@H]1N1Cc2nc(C#C[C@H]3CC[C@H](N4CCN(c5ccc6c(c5)C(=O)N(C5CCC(=O)NC5=O)C6=O)CC4)CC3)cnc2C1=O (stereo partly shown) [Compound 381] | Dmax [2]: > 80%
0.01 to 0.1 µM | – | – | CC1(C)[C@H](Oc2ccc(C#N)c(Cl)c2)C(C)(C)[C@H]1N1Cc2nc(N3CCC(CN4CCN(c5cc6c(cc5F)C(=O)N(C5CCC(=O)NC5=O)C6=O)CC4)CC3)ncc2C1=O (stereo partly shown) [Compound 382] | Dmax [2]: > 80%
0.01 to 0.1 µM | – | – | CC1(C)[C@H](Oc2ccc(C#N)c(Cl)c2)C(C)(C)[C@H]1N1Cc2nc(N3CCC(CN4CCN(c5ccc6c(c5)C(=O)N(C5CCC(=O)NC5=O)C6=O)CC4)CC3)ncc2C1=O (stereo partly shown) [Compound 383] | Dmax [2]: > 80%
< 0.01 µM | – | – | CC1(C)[C@H](Oc2ccc(C#N)c(Cl)c2)C(C)(C)[C@H]1N1Cc2nc(N3CCC(CN4CCN(c5cc6c(cc5F)C(=O)N(C5CCC(=O)NC5=O)C6=O)CC4)CC3)cnc2C1=O (stereo partly shown) [Compound 384] | Dmax [2]: 60 to 80%
– | 0.1 to 0.3 µM | 60 to 80% | CC1(C)[C@H](Oc2ccc(C#N)c(Cl)c2)C(C)(C)[C@H]1N1Cc2nc(N3CCC(CN4CCN(c5ccc6c(c5)C(=O)N(C5CCC(=O)NC5=O)C6=O)CC4)CC3)cnc2C1=O (stereo partly shown) [Compound 385] | –
– | > 0.3 µM | 40 to 60% | CC1(C)[C@H](Oc2ccc(C#N)c(Cl)c2)C(C)(C)[C@H]1N1Cc2nc(C#CC3CCC(N4CC5CC4CN5c4cc5c(cc4F)C(=O)N(C4CCC(=O)NC4=O)C5=O)CC3)cnc2C1=O (stereo partly shown) [Compound 386] | –
– | > 0.3 µM | – | CC1(C)[C@H](Oc2ccc(C#N)c(Cl)c2)C(C)(C)[C@H]1N1Cc2nc(C#CC3CCC(N4CC5CC4CN5c4cc5c(cc4F)C(=O)N(C4CCC(=O)NC4=O)C5=O)CC3)cnc2C1=O (stereo partly shown) [Compound 387] | Dmax (%) [3]: + (<40%)
– | < 0.01 µM | 60 to 80% | CC1(C)[C@H](Oc2ccc(C#N)c(Cl)c2)C(C)(C)[C@H]1N1Cc2nc(C#C[C@H]3C[C@H](N4CCN(c5ccc6c(c5)C(=O)N(C5CCC(=O)NC5=O)C6=O)CC4)C3)cnc2C1=O (stereo partly shown) [Compound 390] | –
– | 0.1 to 0.3 µM | > 80% | CC1(C)[C@H](Oc2ccc(C#N)c(Cl)c2)C(C)(C)[C@H]1N1Cc2nc(C#C[C@H]3C[C@H](N4CCN(c5cc6c(cc5F)C(=O)N(C5CCC(=O)NC5=O)C6=O)CC4)C3)cnc2C1=O (stereo partly shown) [Compound 391] | –
– | 0.01 to 0.1 µM | > 80% | COc1cc(O[C@H]2C(C)(C)[C@H](N3Cc4nc(C#C[C@H]5C[C@H](N6CCN(c7ccc8c(c7)C(=O)N(C7CCC(=O)NC7=O)C8=O)CC6)C5)ccc4C3=O)C2(C)C)ccc1C#N (stereo partly shown) [Compound 392] | –
– | 0.01 to 0.1 µM | > 80% | COc1cc(O[C@H]2C(C)(C)[C@H](N3Cc4nc(C#C[C@H]5C[C@H](N6CCN(c7cc8c(cc7F)C(=O)N(C7CCC(=O)NC7=O)C8=O)CC6)C5)ccc4C3=O)C2(C)C)ccc1C#N (stereo partly shown) [Compound 393] | –
– | 0.01 to 0.1 µM | 60 to 80% | CC1(C)[C@H](Oc2ccc(C#N)c(Cl)c2)C(C)(C)[C@H]1N1Cc2nc(C#C[C@H]3C[C@H](N4CCN(c5cnn(C6CCC(=O)NC6=O)c(=O)c5)CC4)C3)ccc2C1=O (stereo partly shown) [Compound 394] | –
– | 0.1 to 0.3 µM | 40 to 60% | CC1(C)[C@H](Oc2ccc(C#N)c(Cl)c2)C(C)(C)[C@H]1N1Cc2nc(C#C[C@H]3C[C@H](N4CCN(c5cc(=O)n(C6CCC(=O)NC6=O)cn5)CC4)C3)ccc2C1=O (stereo partly shown) [Compound 395] | –
– | 0.01 to 0.1 µM | > 80% | CC1(C)[C@H](Oc2ccc(C#N)c(Cl)c2)C(C)(C)[C@H]1N1Cc2nc(C#C[C@H]3C[C@H](N4CCN(c5ccc6c(=O)n(C7CCC(=O)NC7=O)cnc6c5)CC4)C3)ccc2C1=O (stereo partly shown) [Compound 396] | –
– | 0.01 to 0.1 µM | > 80% | CC1(C)[C@H](Oc2ccc(C#N)c(Br)c2)C(C)(C)[C@H]1N1Cc2nc(C#C[C@H]3CC[C@H](N4CCN(c5cc6c(cc5F)C(=O)N(C5CCC(=O)NC5=O)C6=O)CC4)CC3)ccc2C1=O (stereo partly shown) [Compound 397] | –
– | 0.01 to 0.1 µM | > 80% | CC1(C)[C@H](Oc2ccc(C#N)c(Br)c2)C(C)(C)[C@H]1N1Cc2nc(C#C[C@H]3CC[C@H](N4CCN(c5ccc6c(c5)C(=O)N(C5CCC(=O)NC5=O)C6=O)CC4)CC3)ccc2C1=O (stereo partly shown) [Compound 398] | –
– | < 0.01 µM | > 80% | COc1cc(O[C@H]2C(C)(C)[C@H](N3Cc4nc(C#C[C@H]5CC[C@H](N6CCN(c7cc8c(cc7F)C(=O)N(C7CCC(=O)NC7=O)C8=O)CC6)CC5)ccc4C3=O)C2(C)C)ccc1C#N (stereo partly shown) [Compound 399] | –

Compound | DC50 [1] | DC50 [3] | Dmax [4] | also measured
CC1(C)[C@H](Oc2ccc(C#N)c(Cl)c2)C(C)(C)[C@H]1N1Cc2nc(C#CC3CCC(N4CC5(CCN(c6cc7c(cc6F)C(=O)N(C6CCC(=O)NC6=O)C7=O)CC5)C4)CC3)ccc2C1=O (stereo partly shown) [Compound 378, 2-Chloro-4-((1 r,3r)-3-(2-((4-(7-(2-(2,6-dioxopiperidin-3-yl)-6-fluoro-1,3-dioxoisoindolin-5-yl)-2,7-diazaspiro[3.5]nonan-2-yl)cyclohexyl)ethynyl)-5-oxo-5,7-dihydro-pyrrolo[3,4-b]pyridin-6-yl)-2,2,4,4-tetramethylcyclobutoxy) benzonitrile] | > 0.3 µM | – | – | Dmax (%) [1]: + (<40%)
CC1(C)[C@H](Oc2ccc(C#N)c(Cl)c2)C(C)(C)[C@H]1N1Cc2nc(C#CC3CCC(N4CC5(CCN(c6cc7c(cc6F)C(=O)N(C6CCC(=O)NC6=O)C7=O)CC5)C4)CC3)ccc2C1=O (stereo partly shown) [Compound 379, 2-Chloro-4-((1r,3r)-3-(2-((4-(7-(2-(2,6-dioxopiperidin-3-yl)-6-fluoro-1,3-dioxoisoindolin-5-yl)-2,7-diazaspiro[3.5]nonan-2-yl)cyclohexyl)ethynyl)-5-oxo-5,7-dihydro-pyrrolo[3,4-b]pyridin-6-yl)-2,2,4,4-tetramethylcyclobutoxy) benzonitrile] | 0.01 to 0.1 µM | – | – | Dmax (%) [1]: ++++ (>80%)
CC1(C)[C@H](Oc2ccc(C#N)c(Cl)c2)C(C)(C)[C@H]1N1Cc2nc(C#CC3CCC(N4CC5CC4CN5c4ccc5c(c4)C(=O)N(C4CCC(=O)NC4=O)C5=O)CC3)cnc2C1=O (stereo partly shown) [Compound 388, 2-Chloro-4-((1r,3r)-3-(2-((4-(5-(2-(2,6-dioxopiperidin-3-yl)-1,3-dioxoisoindolin-5-yl)-2,5-diazabicyclo[2.2.1]heptan-2-yl)cyclohexyl)ethynyl)-5-oxo-5,7-dihydro-pyrrolo[3,4-b]pyrazine-26-yl)-2,2,4,4-tetramethylcyclobutoxy) benzonitrile] | – | 0.1 to 0.3 µM | – | Dmax (%) [3]: ++ (60%-40%)
CC1(C)[C@H](Oc2ccc(C#N)c(Cl)c2)C(C)(C)[C@H]1N1Cc2nc(C#CC3CCC(N4CC5CC4CN5c4ccc5c(c4)C(=O)N(C4CCC(=O)NC4=O)C5=O)CC3)cnc2C1=O (stereo partly shown) [Compound 389, 2-Chloro-4-((1r,3r)-3-(2-((4-(5-(2-(2,6-dioxopiperidin-3-yl)-1,3-dioxoisoindolin-5-yl)-2,5-diazabicyclo[2.2.1]heptan-2-yl)cyclohexyl)ethynyl)-5-oxo-5,7-dihydro-pyrrolo[3,4-b]pyrazine-26-yl)-2,2,4,4-tetramethylcyclobutoxy) benzonitrile] | – | > 0.3 µM | < 40% | –
Cc1cc(O[C@H]2C(C)(C)[C@H](N3Cc4nc(C#C[C@H]5CC[C@H](N6CCN(c7cc8c(cc7F)C(=O)N(C7CCC(=O)NC7=O)C8=O)CC6)CC5)ccc4C3=O)C2(C)C)ccc1C#N (stereo partly shown) [Compound 401] | – | 0.01 to 0.1 µM | – | Dmax: > 80%

— patent publication US20230091225A1, “Bifunctional chimeric heterocyclic compounds for targeted degradation of androgen receptors and use thereof” (HINOVA PHARMACEUTICALS INC., priority 2019, published 2023)
